Source: US7932387B2, “Crystalline forms of rosuvastatin calcium salt” (BASF SE, priority 2005, dated 2011)
Where a name gives a salt, the structure may show the parent alone.

Tests used:
[1] = Solubility in water and in physiological liquids (comparison of solid forms); type: physicochemical; settings: compared with form A; qualitative statement
[2] = Chemical and physical stability (comparison of solid forms); type: physicochemical; settings: compared with the amorphous form; qualitative statement

## CC(C)c1nc(N(C)S(C)(=O)=O)nc(-c2ccc(F)cc2)c1/C=C/[C@@H](O)C[C@@H](O)CC(=O)O [Form B, bis[(E)-7-[4-(4-fluorophenyl)-6-isopropyl-2-[methyl(methylsulfonyl)amino]pyrimidin-5-yl](3R,5S)-3,5-dihydroxyhept-6-enoic acid] calcium salt]
[1]
  solubility in water and in physiological liquids: better soluble in water and in physiological liquids than form A
[2]
  chemical and physical stability: chemically and physically more stable than the amorphous form
